Measurements published in US11413278B2, “Compounds and methods for promoting stress resistance” (priority 2015, dated 2022).
“Also recorded” adds a separate entry of the source. Where two headings read alike, the source gives them in different places.

How the values were obtained:
WI-38 cells = experiment: CdCl2 (cadmium) resistance assay; assay type: cell-based, human; details: for fold induction at 10 µM: Homo sapiens, 12 h, normalized ATP measurement; for Assay 4: H2O2- & Cd-resistant / Assay 2: Cadmium-resistant: YES/NO; for Assay 2: Cadmium-resistant: * indicates partial
How it was run: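 WI-38 cells were given compounds at five final concentrations (0.25–20 μM) in triplicate, followed by cadmium or MMS for 12 h. For MMS, medium was switched from OptiMEM+10% FBS to serum-free DMEM+2% BSA when compounds were added, 24 h before stressor. Two independent assays were run, analysed by global variance t-test.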

FOXO3 = experiment: qPCR analysis of FOXO3-regulated genes; assay type: cell-based, human; details: for fold induction at 10 µM: Homo sapiens; for K = Sestrin induction: score; for Induction of at least two of five FOXO3-regulated genes (SOD2, GADD45A, CAT, DDB1, TXNIP): WI-38
How it was run: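 WI-38 cells treated with compound at 10 μM for 24 h, followed by Cells-to-Ct RT-qPCR of FOXO3 target genes normalised to B2M, PPIA and GAPDH. FOXO3 or NRF2 dependence tested by prior 10 nM siRNA knockdown (36 h transfection, compound added ~24 h after replating).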

[1] = Summary score for characterization of 38 core set hits; details: for D = Triple resistant: 2-point score, multiplex resistance (cadmium, MMS, H2O2); for C = H2O2- & Cd-resistant: score, resistance to both H2O2 and cadmium
Protocol: 38 “core set” small molecules are listed and are assigned a score, based on the result for each individual characterization. From our small molecule screen for H2O2-resistance, we isolated 61 top hits. […] Specifically, a 2-point score was assigned to the most well-known and prominent longevity-related phenotypes, such as multiplex resistance, activation of FOXO3 and/or NRF2, and down-regulation of mTOR. Small molecules were also analyzed for their ability to extend C. elegans' lifespan in 4 to 6 independent trials, and the lifespan score scale is from 0 to 2: 0 for no obvious effects, 1 for lifespan extension observed in 2 trials, 2 for observed in more than 2 trials. Certain molecules appeared to have DNA-damaging effects and/or potential cell-toxicity in cultured human cells, and they receive a negative point.

[2] = Exp. 1, WI-38 cells, read-out: Exp. 1, under Cd2Cl2 stress treatment, at 10 uM (fold change)
[3] = Exp. 2, WI-38 cells, read-out: Exp. 2, under Cd2Cl2 stress treatment, at 10 uM (fold change)
[4] = WI-38 cells, 10 μM, both stressors
[5] = score in summary of 38 core set hits
[6] = WI-38 cells, 10 μM, 24 hrs, n=4, qPCR normalized by B2M, read-out: DDB1 Normalized fold change
[7] = WI-38 cells, 10 μM, 24 hrs, n=4, qPCR normalized by B2M, read-out: GADD45A Normalized fold change
[8] = WI-38 cells, 10 μM, 24 hrs, n=4, qPCR normalized by B2M, read-out: SESN1 Normalized fold change
[9] = qPCR, WI-38 cells, 10 μM, n=4, 24 hrs, normalized by B2M, read-out: CAT Normalized fold change
[10] = qPCR, WI-38 cells, 10 μM, n=4, 24 hrs, normalized by B2M, read-out: SOD2 Normalized fold change
[11] = qPCR, WI-38 cells, 10 μM, n=4, 24 hrs, normalized by B2M, read-out: TXNIP Normalized fold change
[12] = 24 h, Assay 10(m), at 10 uM, qPCR, read-out: Induction of FOXO3-regulated genes: CAT normalized fold-change
[13] = 24 h, Assay 10(m), at 10 uM, qPCR, read-out: Induction of FOXO3-regulated genes: DDB1 normalized fold-change
[14] = 24 h, Assay 10(m), at 10 uM, qPCR, read-out: Induction of FOXO3-regulated genes: GADD45A normalized fold-change
[15] = 24 h, Assay 10(m), at 10 uM, qPCR, read-out: Induction of FOXO3-regulated genes: SESN1 normalized fold-change
[16] = 10 μM, 24 hrs, WI-38 cells, qPCR, normalized to B2M, n = 4, read-out: CAT expression, normalized fold change (FOXO3-regulated gene)
[17] = 10 μM, 24 hrs, WI-38 cells, qPCR, normalized to B2M, n = 4, read-out: DDB1 expression, normalized fold change (FOXO3-regulated gene)
[18] = 10 μM, 24 hrs, WI-38 cells, qPCR, normalized to B2M, n = 4, read-out: GADD45A expression, normalized fold change (FOXO3-regulated gene)
[19] = 10 μM, 24 hrs, WI-38 cells, qPCR, normalized to B2M, n = 4, read-out: SESN1 expression, normalized fold change (FOXO3-regulated gene)
[20] = 10 μM, 24 hrs, WI-38 cells, qPCR, normalized to B2M, n = 4, read-out: TXNIP expression, normalized fold change (FOXO3-regulated gene)
[21] = fold change, qPCR, WI-38 cells, 10 μM, 24 hrs, read-out: Summary of effects on FOXO3-regulated genes: CAT
[22] = fold change, qPCR, WI-38 cells, 10 μM, 24 hrs, read-out: Summary of effects on FOXO3-regulated genes: DDB1
[23] = fold change, qPCR, WI-38 cells, 10 μM, 24 hrs, read-out: Summary of effects on FOXO3-regulated genes: GADD45A
[24] = fold change, qPCR, WI-38 cells, 10 μM, 24 hrs, read-out: Summary of effects on FOXO3-regulated genes: SESN1
[25] = fold change, qPCR, WI-38 cells, 10 μM, 24 hrs, read-out: Summary of effects on FOXO3-regulated genes: TXNIP

Row | SMILES | CdCl2-resistant (WI-38 cells) | fold induction at 10 µM (WI-38 cells; [2]) | fold induction at 10 µM (WI-38 cells; [3]) | Assay 4: H2O2- & Cd-resistant (WI-38 cells) | Assay 2: Cadmium-resistant (WI-38 cells) | A = Cadmium resistant (WI-38 cells; [5]) | A = Cadmium resistant (WI-38 cells; summary score) | C = H2O2- & Cd-resistant (WI-38 cells; summary score) | E = Potential FOXO3 Activation (FOXO3; 2-point score) | fold induction at 10 µM (FOXO3; [6]) | fold induction at 10 µM (FOXO3; [7]) | fold induction at 10 µM (FOXO3; [8]) | fold induction at 10 µM (FOXO3; [9]) | fold induction at 10 µM (FOXO3; [10]) | fold induction at 10 µM (FOXO3; [11]) | K = Sestrin induction (FOXO3) | E = Potential FOXO3 Activation (FOXO3; summary score) | D = Triple resistant [1] | C = H2O2- & Cd-resistant [1] | S = Sum of Negative scores ([1]; human) | other results
1 | COc1ccc(C(=O)/C=C/c2ccccc2Br)c(OC)c1 [Gr-4B] | YES | 2 | 1.52 | YES | YES | 1 | 1 | 1 | 0 | 1.06 | 0.61 | 0.992 | 1.18 | 1.04 | 0.792 | 0 | 0 | 0 | 1 | – | H2O2- & CdCl2-resistant (WI-38 cells): YES; CdCl2-resistant (WI-38 cells; WI-38 cells, 10 μM): YES; H2O2- & CdCl2-resistant (WI-38 cells; [4]): YES; S = Sum of Negative scores ([1]; sum of columns Q and R): 0
2 | COc1ccc(C(=O)/C=C/c2cccc(Cl)c2)c(OC)c1 [Gr-4C] | – | 1.07 | 1.19 | YES | YES | 0 | 1 | 1 | 0 | 1.51 | 1.23 | 1.42 | 1.19 | 1.04 | 0.179 | 0 | 0 | 0 | 0 | – | Induction of at least two of five FOXO3-regulated genes (SOD2, GADD45A, CAT, DDB1, TXNIP) (FOXO3; 10 μM, 24 hrs): significant induction; also recorded: significant, induction; fold induction at 10 µM (FOXO3; [12]): 1.19; fold induction at 10 µM (FOXO3; [13]): 1.51; fold induction at 10 µM (FOXO3; [14]): 1.23; fold induction at 10 µM (FOXO3; [15]): 1.42; fold induction at 10 µM (FOXO3; 24 h, Assay 10(m), at 10 uM, qPCR, read-out: Induction of FOXO3-regulated genes: TXNIP normalized fold-change): 0.18; fold induction at 10 µM (FOXO3; [16]): 1.19; fold induction at 10 µM (FOXO3; [17]): 1.51; fold induction at 10 µM (FOXO3; [18]): 1.23; fold induction at 10 µM (FOXO3; [19]): 1.42; fold induction at 10 µM (FOXO3; [20]): 0.18; fold induction at 10 µM (FOXO3; [21]): 1.19; fold induction at 10 µM (FOXO3; [22]): 1.51; fold induction at 10 µM (FOXO3; [23]): 1.23; fold induction at 10 µM (FOXO3; [24]): 1.42; fold induction at 10 µM (FOXO3; [25]): 0.18; S = Sum of Negative scores ([1]; sum of columns Q and R): 0
3 | O=C(/C(=C/c1ccc(Cl)cc1)c1nc2ccccc2[nH]1)c1ccccc1 [Gr-4D] | YES | 2.1 | 2.88 | YES | YES | 1 | 1 | 1 | 0 | 1.41 | 2.11 | 2.16 | 1.37 | 1.2 | 1.09 | 1 | 0 | 0 | 1 | 0 | H2O2- & CdCl2-resistant (WI-38 cells): YES; CdCl2-resistant (WI-38 cells; WI-38 cells, 10 μM): YES; H2O2- & CdCl2-resistant (WI-38 cells; [4]): YES; Induction of at least two of five FOXO3-regulated genes (SOD2, GADD45A, CAT, DDB1, TXNIP) (FOXO3; 10 μM, 24 hrs): could induce both FOXO3- and NRF2-regulated genes; also recorded: significant induction; also recorded: significant, induction; SOD2 expression, normalized fold change (FOXO3-regulated gene) (FOXO3; 10 μM, 24 hrs, WI-38 cells, qPCR, normalized to B2M, n = 4): SOD2 1.20, fold; fold induction at 10 µM (FOXO3; [12]): 1.37; fold induction at 10 µM (FOXO3; [13]): 1.41; fold induction at 10 µM (FOXO3; [14]): 2.11; fold induction at 10 µM (FOXO3; [15]): 2.16; fold induction at 10 µM (FOXO3; 24 h, Assay 10(m), at 10 uM, qPCR, read-out: Induction of FOXO3-regulated genes: SOD2 normalized fold-change): 1.2; fold induction at 10 µM (FOXO3; WI-38, 24 h, read-out: SESN1 expression): > 1.5; fold induction at 10 µM (FOXO3; [16]): 1.37; fold induction at 10 µM (FOXO3; [17]): 1.41; fold induction at 10 µM (FOXO3; [18]): 2.11; fold induction at 10 µM (FOXO3; [19]): 2.16; fold induction at 10 µM (FOXO3; [21]): 1.37; fold induction at 10 µM (FOXO3; [22]): 1.41; fold induction at 10 µM (FOXO3; [23]): 2.11; fold induction at 10 µM (FOXO3; [24]): 2.16; Summary of effects on FOXO3-regulated genes: SOD2 (FOXO3; fold change, qPCR, WI-38 cells, 10 μM, 24 hrs): SOD2 1.20,
4 | CCc1ccc(Oc2nc3ccccn3c(=O)c2/C=C(\C#N)C(=O)NC2CCCCC2)cc1 [Gr-5A] | YES | 4.12 | 2.4 | – | – | 1 | 0 | 0 | 0 | 1.2 | 0.841 | 1.38 | 1.17 | 1.12 | 1.14 | 0 | 0 | 0 | 1 | 0 | H2O2- & CdCl2-resistant (WI-38 cells): YES; CdCl2-resistant (WI-38 cells; WI-38 cells, 10 μM): YES; H2O2- & CdCl2-resistant (WI-38 cells; [4]): YES
5 | CCc1ccc(Oc2nc3ccccn3c(=O)c2/C=C(\C#N)C(=O)NCc2ccco2)cc1 [Gr-5B] | – | 1.29 | 1.36 | – | – | 0 | 0 | 0 | 0 | 1.25 | 0.808 | 1.36 | 1.42 | 1.13 | 1.2 | 0 | 0 | 0 | 0 | 0 | –
6 | CNC(=O)/C(C#N)=C/c1c(Oc2ccc(C(C)(C)C)cc2)nc2ccccn2c1=O [Gr-5D] | – | – | – | YES | YES | 0 | 1 | 1 | 0 | 0.984 | 0.698 | 1.1 | 1.27 | 1.12 | 0.669 | 0 | 0 | 0 | 0 | 0 | fold induction at 10 µM (FOXO3; [20]): 0.67; fold induction at 10 µM (FOXO3; [25]): 0.67
